Source: article PMC8645336, “Benchmarking a highly selective USP30 inhibitor for enhancement of mitophagy and pexophagy” (Life Science Alliance, 2021)

Key:
Assay in all cases: biochemical
Parameters in all cases: Ubiquigent DUB profiler selectivity panel, remaining enzyme activity as % of control
Conditions in all cases: read-out: % of control remaining
OTU1 = biological target: T1, OTU1 (Homo sapiens, UniProt Q5VVQ6)
T1 construct: gene YOD1
T1 sequence (Q5VVQ6 1-348): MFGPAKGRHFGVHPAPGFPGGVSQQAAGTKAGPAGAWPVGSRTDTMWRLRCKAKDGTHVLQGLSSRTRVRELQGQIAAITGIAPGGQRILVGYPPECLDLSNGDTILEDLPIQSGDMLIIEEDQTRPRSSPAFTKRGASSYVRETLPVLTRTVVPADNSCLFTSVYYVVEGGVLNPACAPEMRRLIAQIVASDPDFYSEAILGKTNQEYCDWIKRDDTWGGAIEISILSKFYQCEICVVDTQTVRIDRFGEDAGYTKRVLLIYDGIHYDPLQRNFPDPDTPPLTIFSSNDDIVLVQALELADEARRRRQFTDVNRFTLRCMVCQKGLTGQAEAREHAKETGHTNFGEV
Protocol: (§1) Previous work has reported IC50 values for a series of benzosulphonamide inhibitors, of which all those <1 μM were screened for selectivity, in comparison to three other USP family members ([20], [21]). We have selected one of these compounds (CMPD-39, Fig 1A) for a more rigorous test of selectivity provided by the Ubiquigent DUB profiler screening platform comprising >40 DUBs. […] To test engagement of the inhibitor with USP30 applied to intact cells, we assayed competition with Ub-PA (Ub-propargylamide). Ub-PA covalently binds to the USP30 active site leading to a characteristic upshift on a SDS–PAGE gel ([22]). If a drug blocks access to the catalytic site, then the probe modification is blocked and the apparent molecular weight of USP30 shifts down accordingly. […] A robust proxy read-out for target engagement is the enhancement of TOMM20 ubiquitylation after mitochondrial depolarization ([6], [16]). This second assay indicates a maximal effect with 200 nM CMPD-39 applied to RPE1-YFP-PRKN cells (Fig 1D).  Figure 1. CMPD-39 is a selective USP30 inhibitor. (A) Chemical structure of CMPD-39. (B) DUB specificity screen (DUB profiler, Ubiquigent) with 1-100 μM CMPD-39. […] Samples were incubated with CMPD-39 for 2 h at the indicated concentrations, then incubated with HA-Ub-PA probe for 10 min at 37°C and immunoblotted as shown. Red arrow indicates unbound USP30; blue arrow represents probe bound USP30. (D) Inhibition of USP30 enhances the ubiquitylation of TOMM20 in YFP-PRKN over-expressing hTERT-RPE1 cells in a concentration dependent manner in response to mitophagy induction. Cells were treated for 1 h with DMSO or antimycin A and oligomycin A (AO; 1 μM each) in the absence or presence of CMPD-39 at the indicated concentrations, lysed, and analyzed by Western blotting. Black arrow indicates unmodified TOMM20, ubiquitylated species are indicated by red (mono-ubiquitylated) or blue arrow heads. […] Source data are available for this figure.

USP21 = biological target: T2, USP21 (Homo sapiens, UniProt Q9UK80)
T2 sequence (Q9UK80 1-565): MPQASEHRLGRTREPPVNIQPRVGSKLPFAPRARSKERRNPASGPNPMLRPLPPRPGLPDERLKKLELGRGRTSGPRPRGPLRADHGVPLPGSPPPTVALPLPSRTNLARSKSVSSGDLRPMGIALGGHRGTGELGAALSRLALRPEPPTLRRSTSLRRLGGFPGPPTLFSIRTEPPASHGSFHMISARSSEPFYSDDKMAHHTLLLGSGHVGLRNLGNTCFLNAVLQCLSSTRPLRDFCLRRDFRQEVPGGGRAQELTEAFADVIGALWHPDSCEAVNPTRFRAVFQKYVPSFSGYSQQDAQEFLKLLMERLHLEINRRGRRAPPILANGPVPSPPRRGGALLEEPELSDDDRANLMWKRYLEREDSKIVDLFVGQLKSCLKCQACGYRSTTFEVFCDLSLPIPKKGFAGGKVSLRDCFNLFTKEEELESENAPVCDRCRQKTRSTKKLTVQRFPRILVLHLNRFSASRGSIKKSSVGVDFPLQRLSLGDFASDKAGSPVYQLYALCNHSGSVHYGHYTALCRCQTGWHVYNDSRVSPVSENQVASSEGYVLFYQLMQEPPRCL
Protocol: as §1

USP45 = biological target: T3, USP45 (Homo sapiens, UniProt Q70EL2)
T3 sequence (Q70EL2 1-814): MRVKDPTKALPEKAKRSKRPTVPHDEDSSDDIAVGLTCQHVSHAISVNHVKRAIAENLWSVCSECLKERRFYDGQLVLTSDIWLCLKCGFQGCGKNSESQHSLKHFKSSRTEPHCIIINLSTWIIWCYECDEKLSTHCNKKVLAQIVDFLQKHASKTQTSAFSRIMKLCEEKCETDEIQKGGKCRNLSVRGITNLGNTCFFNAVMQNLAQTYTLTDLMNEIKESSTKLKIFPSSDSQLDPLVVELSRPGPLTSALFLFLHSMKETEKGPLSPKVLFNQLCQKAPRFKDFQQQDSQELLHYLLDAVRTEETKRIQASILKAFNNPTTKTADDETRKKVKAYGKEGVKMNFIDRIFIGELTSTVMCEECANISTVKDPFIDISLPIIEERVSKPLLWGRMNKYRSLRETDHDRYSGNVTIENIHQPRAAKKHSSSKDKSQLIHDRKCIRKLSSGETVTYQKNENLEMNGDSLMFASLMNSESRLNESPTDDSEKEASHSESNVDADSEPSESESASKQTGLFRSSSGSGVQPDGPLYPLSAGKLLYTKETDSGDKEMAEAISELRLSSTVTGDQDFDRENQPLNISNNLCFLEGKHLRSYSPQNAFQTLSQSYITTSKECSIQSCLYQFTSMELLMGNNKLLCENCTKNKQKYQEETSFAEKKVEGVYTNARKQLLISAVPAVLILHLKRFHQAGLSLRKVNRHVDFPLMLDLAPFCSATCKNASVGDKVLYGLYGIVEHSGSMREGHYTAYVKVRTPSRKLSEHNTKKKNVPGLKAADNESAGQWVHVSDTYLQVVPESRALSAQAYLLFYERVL
Protocol: as §1

remaining activity at 1 µM (OTU1): 105%
remaining activity at 10 µM (OTU1): 97.8%
remaining activity at 100 µM (OTU1): 101%
remaining activity at 1 µM (USP21): 102%
remaining activity at 10 µM (USP21): 94%
remaining activity at 100 µM (USP21): 90.9%
remaining activity at 1 µM (USP45): 98.8%
remaining activity at 10 µM (USP45): 95%
remaining activity at 100 µM (USP45): 100%
SMILES: CC(C)(C)NS(=O)(=O)c1ccc(NC(=O)[C@H](Cc2ccccc2)NC(=O)c2ccc(F)cc2)cc1 [compound 39, CMPD-39]
